TGI and GI50 data for 13 compounds are collected here from PubChem BioAssay (NCI).

Holding throughout (test): NCI-60 cell line screen, 48 h
The subject of test [1] is A549 NSCLC.
In test [2] the test system is SF-295 CNS.
Test [3] relates to UO-31 renal.
Test [4] concerns K-562 leukemia.
For test [5], the system named is SK-MEL-28 melanoma.
Test [6] has as its system NCI/ADR-RES ovarian.
The test system of test [7] is SNB-75 CNS.
Test [8] has as its system PC-3 prostate.
In test [9] the test system is HCT-116 colon.
Test [10] has as its system 786-0 renal.

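Results reflect a 48-hour exposure of cells in 96-well plates to compound at five concentrations. GI50 = concentration required for 50% inhibition of growth. The concentration for full growth arrest is given as TGI.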

Regarding `COC(=O)c1ccccc1NC(=O)/C(=N\NC(C)(C)C)C(C#N)c1nc(-c2ccc([N+](=O)[O-])cc2)cs1` (centres undefined), the TGI in test [1], in test [2], in test [3], in test [4], in test [5] and in test [6] was over 100 µM each time. In addition, the TGI in [7], in test [8], in test [9] and in [10] was over 100 µM in each case.
For `CC(C)=CCc1c(O)cc(/C=C/c2cc(O)c3c(c2)C[C@@H]2C(C)(C)[C@H](O)[C@H](O)C[C@@]2(C)O3)cc1O`, the GI50 was 0.249 µM in test [1]; under 0.001 µM in [2]; under 0.001 µM in test [3]; 0.0154 µM in test [4]; 1.58 µM in [5]; 1.38 µM in test [6]. Besides, the GI50 was under 0.001 µM in test [7], 0.345 µM in test [8], 0.00519 µM in test [9] and under 0.001 µM in test [10]. For the same compound, the TGI is over 10 µM in [1]; 0.00118 µM in test [2]; 4.92 µM in test [3]; over 9.25 µM in test [4]; over 5.26 µM in [5]; 7.43 µM in [6]. For the same compound, the TGI in test [7] is 0.958 µM; in test [8], over 10 µM; in test [9] it was over 10 µM; in [10] it was over 6.26 µM.
In the case of `O=C(COc1cccc(/C=C2\COc3ccccc3C2=O)c1)Nc1nccs1`, the GI50 in test [1] was 2.41 µM; in [2], 1.73 µM; in test [3], 1.52 µM; in test [4], 1.44 µM; in test [5], 2.42 µM; in test [6], 4.97 µM. In addition, the GI50 in test [7] is 12.2 µM; in test [8], 1.37 µM; in test [9] it was 1.76 µM; in [10], 2.05 µM. For the same compound, the TGI in test [1] stood at 6.22 µM; in test [2], 3.26 µM; in [3], 2.91 µM; in test [4] it was 29.2 µM; in test [5], 5.44 µM; in [6] it was 21.8 µM. In addition, the TGI in [7] turned out to be 24.6 µM; in test [8], 3.46 µM; in test [9], 3.15 µM; in [10], 4.14 µM.
On to `O=Cc1ccc(-c2ccc(-c3ccc(C=O)s3)o2)s1`, for which the TGI in test [1], in test [2], in test [3], in test [4], in test [5] and in test [6] was over 100 µM in each case. The TGI in test [7] was 78.8 µM; in test [8], over 100 µM; in test [9], over 100 µM; in test [10], over 100 µM.
Regarding `O=S1(=O)CCN(Cc2ccccn2)CC1`, the TGI in [1], in test [2], in [3], in test [4], in [5] and in test [6] was over 100 µM each time. The TGI in test [7], in test [8], in test [9] and in test [10] was over 100 µM throughout.
On to `CC(=O)/C=C/C1=C(c2cc3ccccc3s2)c2ccccc2CC1`, for which the GI50 is 33 µM in test [1]; 37 µM in test [2]; 21 µM in test [3]; 15.2 µM in [4]; 20.9 µM in test [5]; 30.9 µM in test [6]. Besides, the GI50 in test [7] is 29.8 µM; in test [8], 18.4 µM; in test [9], 20.7 µM; in test [10] it was 33.2 µM. Further, the TGI was over 100 µM in test [1]; over 100 µM in [2]; 59.4 µM in test [3]; over 100 µM in test [4]; 54.1 µM in test [5]; over 100 µM in [6]. The TGI is over 100 µM in [7], over 100 µM in test [8], 65.1 µM in test [9] and over 100 µM in [10].
Take `O=C1C=C(Nc2ccccc2C(=O)CC(=O)C(=O)Nc2cccc(C(F)(F)F)c2)c2ccccc2C1=O`: the TGI is over 89.8 µM in test [1]; 53.7 µM in test [2]; over 80.1 µM in [3]; over 94.9 µM in test [4]; 54.8 µM in test [5]; 49.5 µM in test [6]. Moreover, the TGI in [7] is over 96.9 µM; in test [8], over 100 µM; in test [9], 74.3 µM; in [10], over 97.2 µM.
As for `CCCCC(=O)N/N=C/c1cc(I)cc(I)c1O`, the GI50 in test [1] is 3.63 µM; in test [2], 2.45 µM; in test [3] it was 1.28 µM; in test [4], 2.99 µM; in test [5] it was 2.85 µM; in test [6] it was 2.58 µM. Also, the GI50 in test [7] is 6.03 µM; in test [8], 3.35 µM; in [9], 3.63 µM; in test [10], 3.39 µM. Also, the TGI in test [1] amounted to 22.4 µM; in test [2], 12.9 µM; in [3], 11.1 µM; in test [4] it was 15.9 µM; in test [5], 17.3 µM; in test [6] it was 20.1 µM. For the same compound, the TGI in [7] was determined as 26.5 µM; in [8], 20.9 µM; in test [9], 21.9 µM; in test [10], 20.6 µM.
For the compound `COc1cnc2c(c1)C(=O)c1c-2n(CCCn2ccnc2)c(=O)c2cc(Cl)ccc12`, the GI50 is 0.0663 µM in [1]; 0.0251 µM in test [2]; 0.0264 µM in test [3]; 0.0347 µM in test [4]; 0.611 µM in [5]; 0.03 µM in [6]. Further, the GI50 in [7] is 0.219 µM; in test [8], 0.0667 µM; in test [9], 0.0147 µM; in [10], 0.0262 µM. The TGI is over 100 µM in test [1]; 0.0794 µM in test [2]; 2.34 µM in test [3]; over 100 µM in [4]; over 100 µM in test [5]; 12.5 µM in [6]. In addition, the TGI in [7] was 18.9 µM; in test [8] it was over 100 µM; in test [9], 0.216 µM; in test [10], 0.0823 µM.
`COC(=O)CCC(=O)c1c(C)[nH]c(/C=C2\N=C(c3ccc[nH]3)C=C2OC)c1C`: the GI50 in test [1] was 3.08 µM; in test [2] it was 1.62 µM; in test [3], 0.279 µM; in test [4], 1.24 µM; in test [5], 1.27 µM; in [6] it was 0.728 µM. Also, the GI50 in test [7] was 0.971 µM; in test [8] it was 0.647 µM; in test [9], 0.257 µM; in test [10], 0.552 µM. In addition, the TGI in [1] amounted to 10.8 µM; in [2], 4.08 µM; in test [3], 0.866 µM; in [4], 3.18 µM; in [5] it was 3.18 µM; in test [6], 3.66 µM. In addition, the TGI in [7] worked out at 3.51 µM; in test [8], 2.14 µM; in [10] it was 1.82 µM.
As for `COCCOC(=O)C1=C(C)NC2=C(C(=O)CC(c3ccccc3OC)C2)C1c1cccc(O)c1` (centres undefined), the GI50 is 13.1 µM in test [1]; 11.5 µM in test [2]; 3.62 µM in [3]; 7.97 µM in [4]; 12.6 µM in test [5]; 35.9 µM in test [6]. Besides, the GI50 is 2.43 µM in test [7], 8.15 µM in [8], 12.8 µM in [9] and 12.2 µM in [10]. Moreover, the TGI in [1] is over 72.2 µM; in test [2], 35.2 µM; in test [3] it was 45.8 µM; in [4], over 85.4 µM; in [5], 50.6 µM; in test [6], over 100 µM. The TGI is 30.9 µM in [7], over 95.2 µM in [8], 35.4 µM in test [9] and 51.6 µM in test [10].
Regarding `O=[N+]([O-])c1ccccc1N=Nc1c(O)[nH]c2ccccc12`, the TGI in test [1] was over 100 µM; in test [2] it was over 100 µM; in test [3] it was over 52.8 µM; in [4], over 100 µM; in test [5], over 100 µM; in test [6], over 58.8 µM. Also, the TGI was 68.8 µM in test [7], over 100 µM in test [8], over 54.2 µM in [9] and 36.1 µM in [10].
Turning to `CCCN(CCC)c1ccc(CO)c(C)c1`, the GI50 is 83.3 µM in [1]; over 100 µM in [2]; over 100 µM in test [3]; 27.4 µM in [4]; over 100 µM in test [5]; over 100 µM in [6]. Further, the GI50 is 68.2 µM in [7], 17.4 µM in test [8], 26.9 µM in test [9] and over 100 µM in test [10]. For the same compound, the TGI in test [1], in test [2], in [3], in [4], in [5] and in test [6] was over 100 µM throughout. Also, the TGI in test [7] is over 100 µM; in test [8] it was 57.6 µM; in [9], over 100 µM; in test [10], over 100 µM.
